# Assay results: ChEMBL document CHEMBL4020788, “Synthesis, SAR and molecular docking studies of benzo[d]thiazole-hydrazones as potential antibacterial and antifungal agents” (2017)
# Experiments:
# Assay type in all cases: functional
# [1] = test system: Staphylococcus aureus; experiment: Antibacterial activity against methicillin resistant Staphylococcus aureus MRSA090 at 25 ug/ml after 24 hrs by agar well diffusion method; details: MRSA090, 24 h, read-out: DIZ
# [2] = test system: Bacillus subtilis; experiment: Antibacterial activity against Bacillus subtilis at 25 ug/ml after 24 hrs by agar well diffusion method; details: read-out: DIZ
# [3] = test system: Klebsiella pneumoniae; experiment: Antibacterial activity against Klebsiella pneumoniae at 75 ug/ml after 24 hrs by agar well diffusion method; details: read-out: DIZ
# [4] = test system: Aspergillus niger; experiment: Antifungal activity against Aspergillus niger at 75 ug/ml after 48 hrs by agar well diffusion method; details: read-out: DIZ
# [5] = test system: Klebsiella pneumoniae; experiment: Antibacterial activity against Klebsiella pneumoniae at 50 ug/ml after 24 hrs by agar well diffusion method; details: read-out: DIZ
# [6] = test system: Escherichia coli; experiment: Antibacterial activity against Escherichia coli at 100 ug/ml after 24 hrs by agar well diffusion method; details: read-out: DIZ
# [7] = test system: Staphylococcus aureus; experiment: Antibacterial activity against Staphylococcus aureus at 25 ug/ml after 24 hrs by agar well diffusion method; details: read-out: DIZ
# [8] = test system: Escherichia coli; experiment: Antibacterial activity against Escherichia coli at 75 ug/ml after 24 hrs by agar well diffusion method; details: read-out: DIZ
# [9] = test system: Aspergillus niger; experiment: Antifungal activity against Aspergillus niger at 50 ug/ml after 48 hrs by agar well diffusion method; details: read-out: DIZ
# [10] = test system: Staphylococcus aureus; experiment: Antibacterial activity against methicillin resistant Staphylococcus aureus MRSA090 at 75 ug/ml after 24 hrs by agar well diffusion method; details: MRSA090, 24 h, read-out: DIZ
# [11] = test system: Fusarium verticillioides; experiment: Antifungal activity against Fusarium moniliforme at 100 ug/ml after 48 hrs by agar well diffusion method; details: read-out: DIZ
# [12] = test system: Staphylococcus aureus; experiment: Antibacterial activity against Staphylococcus aureus at 50 ug/ml after 24 hrs by agar well diffusion method; details: read-out: DIZ
# [13] = test system: Fusarium oxysporum; experiment: Antifungal activity against Fusarium oxysporum at 100 ug/ml after 48 hrs by agar well diffusion method; details: read-out: DIZ
# [14] = test system: Staphylococcus aureus; experiment: Antibacterial activity against methicillin resistant Staphylococcus aureus MRSA090 at 100 ug/ml after 24 hrs by agar well diffusion method; details: MRSA090, 24 h, read-out: DIZ
# [15] = test system: Bacillus subtilis; experiment: Antibacterial activity against Bacillus subtilis incubated for overnight by microdilution method
# [16] = test system: Staphylococcus aureus; experiment: Antibacterial activity against methicillin resistant Staphylococcus aureus MRSA090 at 50 ug/ml after 24 hrs by agar well diffusion method; details: MRSA090, 24 h, read-out: DIZ
# [17] = test system: Aspergillus niger; experiment: Antifungal activity against Aspergillus niger at 100 ug/ml after 48 hrs by agar well diffusion method; details: read-out: DIZ
# [18] = test system: Klebsiella pneumoniae; experiment: Antibacterial activity against Klebsiella pneumoniae at 100 ug/ml after 24 hrs by agar well diffusion method; details: read-out: DIZ
# [19] = test system: Staphylococcus aureus; experiment: Antibacterial activity against methicillin resistant Staphylococcus aureus MRSA090 incubated for overnight by microdilution method
# [20] = test system: Staphylococcus aureus; experiment: Antibacterial activity against Staphylococcus aureus at 100 ug/ml after 24 hrs by agar well diffusion method; details: read-out: DIZ
# [21] = test system: Fusarium verticillioides; experiment: Antifungal activity against Fusarium moniliforme after 48 to 72 hrs by microdilution method
# [22] = test system: Escherichia coli; experiment: Antibacterial activity against Escherichia coli at 25 ug/ml after 24 hrs by agar well diffusion method; details: read-out: DIZ
# [23] = test system: Bacillus subtilis; experiment: Antibacterial activity against Bacillus subtilis at 75 ug/ml after 24 hrs by agar well diffusion method; details: read-out: DIZ
# [24] = test system: Fusarium oxysporum; experiment: Antifungal activity against Fusarium oxysporum at 75 ug/ml after 48 hrs by agar well diffusion method; details: read-out: DIZ
# [25] = test system: Fusarium verticillioides; experiment: Antifungal activity against Fusarium moniliforme at 25 ug/ml after 48 hrs by agar well diffusion method; details: read-out: DIZ
# [26] = test system: Fusarium verticillioides; experiment: Antifungal activity against Fusarium moniliforme at 75 ug/ml after 48 hrs by agar well diffusion method; details: read-out: DIZ
# [27] = test system: Klebsiella pneumoniae; experiment: Antibacterial activity against Klebsiella pneumoniae incubated for overnight by microdilution method
# [28] = test system: Fusarium oxysporum; experiment: Antifungal activity against Fusarium oxysporum at 25 ug/ml after 48 hrs by agar well diffusion method; details: read-out: DIZ
# [29] = test system: Aspergillus niger; experiment: Antifungal activity against Aspergillus niger after 48 to 72 hrs by microdilution method
# [30] = test system: Klebsiella pneumoniae; experiment: Antibacterial activity against Klebsiella pneumoniae at 25 ug/ml after 24 hrs by agar well diffusion method; details: read-out: DIZ
# [31] = test system: Fusarium oxysporum; experiment: Antifungal activity against Fusarium oxysporum after 48 to 72 hrs by microdilution method
# [32] = test system: Fusarium verticillioides; experiment: Antifungal activity against Fusarium moniliforme at 50 ug/ml after 48 hrs by agar well diffusion method; details: read-out: DIZ
# [33] = test system: Staphylococcus aureus; experiment: Antibacterial activity against Staphylococcus aureus at 75 ug/ml after 24 hrs by agar well diffusion method; details: read-out: DIZ
# [34] = test system: Staphylococcus aureus; experiment: Antibacterial activity against Staphylococcus aureus incubated for overnight by microdilution method
# [35] = test system: Bacillus subtilis; experiment: Antibacterial activity against Bacillus subtilis at 50 ug/ml after 24 hrs by agar well diffusion method; details: read-out: DIZ
# [36] = test system: Fusarium oxysporum; experiment: Antifungal activity against Fusarium oxysporum at 50 ug/ml after 48 hrs by agar well diffusion method; details: read-out: DIZ
# [37] = test system: Aspergillus niger; experiment: Antifungal activity against Aspergillus niger at 25 ug/ml after 48 hrs by agar well diffusion method; details: read-out: DIZ
# [38] = test system: Bacillus subtilis; experiment: Antibacterial activity against Bacillus subtilis at 100 ug/ml after 24 hrs by agar well diffusion method; details: read-out: DIZ
# [39] = test system: Escherichia coli; experiment: Antibacterial activity against Escherichia coli at 50 ug/ml after 24 hrs by agar well diffusion method; details: read-out: DIZ
# [40] = test system: Escherichia coli; experiment: Antibacterial activity against Escherichia coli incubated for overnight by microdilution method
Structure (SMILES),zone of inhibition at 25 µg/mL [1] [mm],zone of inhibition at 25 µg/mL [2] [mm],zone of inhibition at 75 µg/mL [3] [mm],zone of inhibition at 75 µg/mL [4] [mm],zone of inhibition at 50 µg/mL [5] [mm],zone of inhibition at 100 µg/mL [6] [mm],zone of inhibition at 25 µg/mL [7] [mm],zone of inhibition at 75 µg/mL [8] [mm],zone of inhibition at 50 µg/mL [9] [mm],zone of inhibition at 75 µg/mL [10] [mm],zone of inhibition at 100 µg/mL [11] [mm],zone of inhibition at 50 µg/mL [12] [mm],zone of inhibition at 100 µg/mL [13] [mm],zone of inhibition at 100 µg/mL [14] [mm],MIC [15] [µg/mL],zone of inhibition at 50 µg/mL [16] [mm],zone of inhibition at 100 µg/mL [17] [mm],zone of inhibition at 100 µg/mL [18] [mm],MIC [19] [µg/mL],zone of inhibition at 100 µg/mL [20] [mm],other results
Cc1cccc2nc(N/N=C/c3cc4ccccc4[nH]3)sc12,16,10,18,24,9,33,14,30,19,27,22,18,36,30,25,23,30,24,22,30,MIC [21]: 24 µg/mL; zone of inhibition at 25 µg/mL [22]: 17 mm; zone of inhibition at 75 µg/mL [23]: 19 mm; zone of inhibition at 75 µg/mL [24]: 31 mm; zone of inhibition at 25 µg/mL [25]: 8 mm; zone of inhibition at 75 µg/mL [26]: 9 mm; MIC [27]: 25 µg/mL; zone of inhibition at 25 µg/mL [28]: 17 mm; MIC [29]: 25 µg/mL; zone of inhibition at 25 µg/mL [30]: 4 mm; MIC [31]: 22 µg/mL; zone of inhibition at 50 µg/mL [32]: 14 mm; zone of inhibition at 75 µg/mL [33]: 24 mm; MIC [34]: 24 µg/mL; zone of inhibition at 50 µg/mL [35]: 14 mm; zone of inhibition at 50 µg/mL [36]: 24 mm; zone of inhibition at 25 µg/mL [37]: 12 mm; zone of inhibition at 100 µg/mL [38]: 21 mm; zone of inhibition at 50 µg/mL [39]: 24 mm; MIC [40]: 24 µg/mL
Cc1cccc2nc(N/N=C/c3cccs3)sc12,13,10,18,21,11,22,12,18,15,22,15,18,30,28,26,16,26,21,20,28,MIC [21]: 28 µg/mL; zone of inhibition at 25 µg/mL [22]: 10 mm; zone of inhibition at 75 µg/mL [23]: 21 mm; zone of inhibition at 75 µg/mL [24]: 29 mm; zone of inhibition at 25 µg/mL [25]: 7 mm; zone of inhibition at 75 µg/mL [26]: 12 mm; MIC [27]: 26 µg/mL; zone of inhibition at 25 µg/mL [28]: 21 mm; MIC [29]: 30 µg/mL; zone of inhibition at 25 µg/mL [30]: 7 mm; MIC [31]: 23 µg/mL; zone of inhibition at 50 µg/mL [32]: 9 mm; zone of inhibition at 75 µg/mL [33]: 24 mm; MIC [34]: 32 µg/mL; zone of inhibition at 50 µg/mL [35]: 15 mm; zone of inhibition at 50 µg/mL [36]: 24 mm; zone of inhibition at 25 µg/mL [37]: 11 mm; zone of inhibition at 100 µg/mL [38]: 24 mm; zone of inhibition at 50 µg/mL [39]: 14 mm; MIC [40]: 35 µg/mL
